# Measured values reported in patent US20190125751A1, “ANTICANCER COMBINATION THERAPY” (BOEHRINGER INGELHEIM INTERNATIONAL GMBH, priority 2016, published 2019).
# Legend:
# H1975 (EGFRL858R/T790M) = assay: in vivo xenograft study in mice, NSCLC model H1975; conditions: once daily or twice daily
# Text: (§1) Compound A is a small molecule epidermal growth factor receptor (EGFR) mutant-specific inhibitor. […] Compound A is a novel, 3rd generation EGFR mutant-specific TKI, which is currently being investigated in first and second line setting for treatment of patients with EGFR-mutated NSCLC.
# [1] = tested on: HCC827 (EGFRDelE746-A750); assay: in vivo xenograft study in mice, NSCLC model HCC827; conditions: once daily or twice daily
# Text: as §1
# mutant forms of EGFR = assay: enzymatic inhibitory activity, mutant forms of EGFR versus wild type EGFR; type: biochemical; conditions: in vitro
# Text: as §1
# [2] = mouse, in vivo
# Text: as §1
# EGFR mutant cell lines = assay: cellular proliferation assays comparing EGFR mutant with EGFR wild type cell lines; type: cell-based; conditions: EGFR mutant versus EGFR wild type cell lines
# Text: as §1
# [3] = tested on: EGFR-exon 19 deletion+T790M+C797S; conditions: preclinical models; cited from earlier work
# [4] = tested on: T790M-containing cell lines; conditions: several preclinical models; cited from earlier work
structure (smiles),measurement,setting,value
"C=CC(=O)Nc1cccc(Oc2nc(Nc3ccc(N4CCN(C)CC4)cc3)nc3ccsc23)c1 [Compound A, N-(3-{2-[4-(4-methyl-piperazin-1-yl)-phenylamino]-thieno[3,2-d]pyrimidin-4-yloxy}-phenyl)-acrylamide]",anti-tumor activity as a single agent,H1975 (EGFRL858R/T790M),Tumor regressions were observed in all models
same,anti-tumor activity as a single agent,[1],Tumor regressions were observed in all models
same,enzymatic inhibitory activity towards mutant forms of EGFR compared to wild type EGFR,mutant forms of EGFR,more potent
same,tolerability,[2],tolerated by the mice
same,inhibition of proliferation of mutated cell lines at lower concentration than for cells expressing wild type EGFR receptor,EGFR mutant cell lines,approximately 35 fold
"C=CC(=O)Nc1cc(Nc2nccc(-c3cn(C)c4ccccc34)n2)c(OC)cc1N(C)CCN(C)C [AZD9291, osimertinib]",sensitivity of the mutant protein to the drug,[3],resistant
"CN(C)C/C=C/C(=O)Nc1cc2c(Nc3ccc(F)c(Cl)c3)ncnc2cc1O[C@H]1CCOC1 [Compound B, afatinib]",inhibition of T790M-containing cell lines,[4],effectively inhibit
COc1cc2ncnc(Nc3ccc(F)c(Cl)c3)c2cc1NC(=O)/C=C/CN1CCCCC1 [dacomitinib],inhibition of T790M-containing cell lines,[4],effectively inhibit
